In US4737506A, “Anti-arteriosclerotic pyridyl or imidazolyl derivatives of carbonyloxyalkyl hantzsch esters” (Kowa Co., Ltd., priority 1984, dated 1988):

System: thromboxane B2 (TXB2) formation
Assay: Percent inhibition against thromboxane B2 (TXB2) formation in collagen-stimulated PRP from mice after oral administration (RIA)
Assay type: in vivo, ddY male mouse
Settings: Mus musculus, blood collected 1 hour later, 12.5 μg/ml collagen, TXB2 5 minutes later; for inhibition at 30 mg/kg: 30 mg/kg oral; for inhibition at 100 mg/kg: 100 mg/kg oral
Description: Using a ddY male mouse having a body weight of 35-40 g, one of the representative compounds of this invention was administered orally. One hour later, citrated blood was collected. PRP (platelet-rich plasma) was separated. Aggregation of platelets by the addition of 12.5 μg/ml of collagen was observed by an aggregometer. The amount of thromboxane B2 (a stable metabolite of thromboxane A2) formed 5 minutes later in the liquid reaction mixture was measured by the RIA method. Results are shown in Table 1, in terms of percent inhibition against the formation of thromboxane B2 (TXB2).

| SMILES | inhibition at 30 mg/kg [%] | inhibition at 100 mg/kg [%] |
| --- | --- | --- |
| CCOC(=O)C1=C(C)NC(C)=C(C(=O)OCCOC(=O)c2ccc(OCCn3ccnc3)cc2)C1c1cccc([N+](=O)[O-])c1 (stereo not shown) [Ex. 2, 3-Ethyl 5-[2-[4-[2-(1-imidazolyl)-ethoxy]-benzoyloxy]-ethyl]2,6-dimethyl-4-(3-nitrophenyl)-1,4-dihydropyridine-3,5-dicarboxylate] | 42 | 72 |
| CCOC(=O)C1=C(C)NC(C)=C(C(=O)OCCCOC(=O)c2ccc(OCCn3ccnc3)cc2)C1c1cccc([N+](=O)[O-])c1 (stereo not shown) [Ex. 6, 3-Ethyl 5-[3-[4-[2-(1-imidazolyl)ethoxyl]benzoyloxy]propyl]2,6-dimethyl-4-(3-nitrophenyl)-1,4-dihydropyridine-3,5-dicarboxylate] | 74 | 95 |
| COC(=O)C1=C(C)NC(C)=C(C(=O)OCCOC(=O)C=Cc2ccc(Cn3ccnc3)cc2)C1c1cccc([N+](=O)[O-])c1 (stereo not shown) [Ex. 8, 3-Methyl 5-[2-[3-[4-(1-imidazolylmethyl)-phenyl]acryloyloxy]ethyl]2,6-dimethyl-4-(3-nitrophenyl)-1,4-dihydropyridine-3,5-dicarboxylate] | 60 | 72 |
| COC(=O)C1=C(C)NC(C)=C(C(=O)OCCOC(=O)C=Cc2ccc(Cn3ccnc3)cc2)C1c1ccccc1F (stereo not shown) [Ex. 14, 3-Methyl 5-[2-[3-[4-(1-imidazolylmethyl)phenyl]acryloyloxy]ethyl]2,6-dimethyl-4-(2-fluorophenyl)-1,4-dihydropyridine-3,5-dicarboxylate] | 52 | 83 |
| COC(=O)C1=C(C)NC(C)=C(C(=O)OCCOC(=O)c2ccc(OCCn3ccnc3)cc2)C1c1cccc(Cl)c1Cl (stereo not shown) [Ex. 16, 3-Methyl 5-[2-[4-[2-(1-imidazolyl)ethoxy]-benzoyloxy]ethyl]2,6-dimethyl-4-(2,3-dichlorophenyl)-1,4-dihydropyridine-3,5-dicarboxylate] | 75 | 94 |
